Earlier results, collected in patent US20060257483A1, “Controlled release bupropion dosage forms” (ABRIKA Pharmaceuticals, priority 2005, published 2006).
Structures can show the parent of a compound that is named as a salt.

Details: powder

Structure (SMILES): CC(NC(C)(C)C)C(=O)c1cccc(Cl)c1 (stereo not shown) [bupropion hydrochloride]
- solubility in water: highly soluble in water
